# Columns and labels:
# [1] = tested on: SHH-driven medulloblastoma; assay: Survival; type: in vivo, mouse; conditions: 100 mg/kg IP or orally, or 50 mg/kg IP
# serum protein = assay: Unbound vismodegib over time after incubation in FBS; type: in vitro ADME, bovine; conditions: 30 min incubation
# [2] = Spatial distribution of vismodegib in brain sections by IR-MALDESI; type: in vivo, mouse; conditions: 4 h after IP injection
# albumin = conditions: 4 h post administration, SPE
# [3] = cited from earlier work
# phosphorylated RB (pRB) = assay: Pharmacodynamics: pRB+ / PCNA proliferation markers in G-Smo medulloblastoma; type: in vivo, mouse; conditions: for suppression of pRB+ cell fraction in tumors: 24 h
# [4] = Pharmacokinetics by LC-MS in medulloblastoma-bearing G-Smo mice; conditions: mouse, in vivo, ip, 100 mg/kg
# [5] = 4 h
# [6] = Bone toxicity: femur length by CT scan and direct measurement; type: in vivo, mouse; conditions: 4 daily doses of 100 mg/kg IP from P10
# [7] = children; cited from earlier work
smiles,measurement,setting,value
CS(=O)(=O)c1ccc(C(=O)Nc2ccc(Cl)c(-c3ccccn3)c2)c(Cl)c1 [vismodegib],event free survival (EFS),[1],failed to extend the EFS
same,unbound fraction of total vismodegib,serum protein,marginal
same,distribution of vismodegib in tumor and forebrain,[2],evenly distributed
same,drug albumin-bound in serum,albumin,90%
same,vismodegib unbound in serum,albumin,9%
same,oral bioavailability,[3],31.8%
same,suppression of pRB,phosphorylated RB (pRB); 50 mg/kg IP,sufficient to suppress pRB
same,suppression of pRB+ cell fraction in tumors,phosphorylated RB (pRB); single 100 mg/kg IP,similarly suppressed pRB
same,suppression of pRB+ cell fraction in tumors,phosphorylated RB (pRB); single 100 mg/kg oral,less suppression
same,Kp,[4],0.439
same,vismodegib level in serum,"[5]; 100 mg/kg, systemic (IP)",comparable levels to POx-vismo
same,"vismodegib concentrations in blood, tumor and forebrain compared to POx-vismo",[5]; oral gavage,significantly lower
same,femur length,[6],reduced femur length
same,drug levels in the CSF as % of the concentration of unbound vismodegib,[7],26-78%
same,drug levels in the CSF as % of total plasma vismodegib,[7],0.26%

# From paper PMC8160025 (Nanomedicine : nanotechnology, biology, and medicine, 2020)
